The assay addresses T1, TgSLS (Toxoplasma gondii, UniProt A0A2U9EWT7).
T1 construct: parasites elsewhere RH, locus tag of ME49), pRS426MET25 in S. cerevisiae YPH499-HIS-GAL-AUR1, CHAPS-washed microsomes; no tag mentioned
T1 sequence (A0A2U9EWT7 1-427): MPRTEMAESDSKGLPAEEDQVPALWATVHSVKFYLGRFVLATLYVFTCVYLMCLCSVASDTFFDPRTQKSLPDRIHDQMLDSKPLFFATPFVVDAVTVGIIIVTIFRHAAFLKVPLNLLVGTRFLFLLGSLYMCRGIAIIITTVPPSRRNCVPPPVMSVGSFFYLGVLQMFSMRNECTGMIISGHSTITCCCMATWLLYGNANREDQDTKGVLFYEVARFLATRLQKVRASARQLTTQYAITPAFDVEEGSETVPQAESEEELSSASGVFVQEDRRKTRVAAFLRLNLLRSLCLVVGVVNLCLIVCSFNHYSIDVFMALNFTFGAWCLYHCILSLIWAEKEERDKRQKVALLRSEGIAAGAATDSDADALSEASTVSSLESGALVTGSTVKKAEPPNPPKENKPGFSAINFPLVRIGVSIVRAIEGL
Kind of assay: IPC formation by CHAPS-washed yeast microsomes, HPTLC fluorescence. In kind it is biochemical. Particulars: acceptor substrate at 5 μM; donor 1 mM bovine liver phosphatidylinositol; 10 mM EDTA, 6 mg/ml BSA, 30 °C, 60 min; labelled compound.

As for `CCCCCCCCCCCCC/C=C/[C@@H](O)[C@H](CO)NC(=O)CCCCCNc1ccc([N+](=O)[O-])c2nonc12` [NBD C6-ceramide], the “IPC formation by CHAPS-washed yeast microsomes, HPTLC fluorescence” value is reported as “reaction of CHAPS-washed TgSLS extract with acceptor substrate NBD-C6-ceramide”.
